Results published in patent US20260265305A1, “POLYPEPTIDE DERIVATIVE FOR ORAL DELIVERY” (Hangzhou Sciwind Biosciences Co., Ltd., priority 2023, published 2026).
Numbered stars: 1 amine (or outer) side, 2 acyl side, 3 side chain; on linkers, the order of the positions; unused ones are H or OH. Peptide text beside a SMILES is read from it. * marks the point of attachment. C20 diacid = O=C(O)CCCCCCCCCCCCCCCCCCC(=O)*; C18 diacid = O=C(O)CCCCCCCCCCCCCCCCC(=O)*; C16 diacid = O=C(O)CCCCCCCCCCCCCCC(=O)*; γGlu = O=C(O)[C@H](CCC(=O)[*:2])N[*:1]; Trx = NC[C@H]1CC[C@H](C(=O)O)CC1; AEEA = NCCOCCOCC(=O)O

Key:
amylin receptor (hAMY3R) = molecular target: T1, amylin receptor (hAMY3R) (Homo sapiens, UniProt O60896+P30988); test: Amylin receptor agonism testing, CRE-luciferase assay in stably transfected CHO-K1/Ga15/AMY3 cells; format: cell-based; conditions: relative to D1 as benchmark
T1 construct: host or cells: CHO-K1/Ga15/AMY3 cells, further stably transfected with a CRE-luciferase plasmid
T1 sequence (P30988 25-474): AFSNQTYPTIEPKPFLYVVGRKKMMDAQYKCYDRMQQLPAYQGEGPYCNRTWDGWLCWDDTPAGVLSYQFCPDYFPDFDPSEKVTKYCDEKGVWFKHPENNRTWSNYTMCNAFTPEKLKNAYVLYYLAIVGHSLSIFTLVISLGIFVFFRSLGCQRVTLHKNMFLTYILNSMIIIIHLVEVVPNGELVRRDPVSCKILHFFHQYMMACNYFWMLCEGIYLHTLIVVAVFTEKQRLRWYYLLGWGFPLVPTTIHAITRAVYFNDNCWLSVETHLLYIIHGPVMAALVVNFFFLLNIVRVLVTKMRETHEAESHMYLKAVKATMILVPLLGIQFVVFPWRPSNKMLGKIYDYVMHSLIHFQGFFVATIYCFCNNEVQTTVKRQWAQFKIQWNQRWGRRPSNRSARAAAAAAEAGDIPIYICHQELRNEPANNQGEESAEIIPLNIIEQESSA
T1 sequence (O60896 24-148): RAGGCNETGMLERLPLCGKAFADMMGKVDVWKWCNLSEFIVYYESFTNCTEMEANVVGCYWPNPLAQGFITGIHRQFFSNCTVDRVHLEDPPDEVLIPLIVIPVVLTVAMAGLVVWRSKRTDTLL

[1] = Heat accelerated stability assay of polypeptide solutions (40° C., pH about 7.4), reversed phase chromatography; format: physicochemical; conditions: 40° C.; for Concentration change on 26 d / Concentration change on 7 d: pH about 7.4, 1 mg/mL; for Concentration change on 26 d / Purity change on 26 d: Day 26; for Purity change on 7 d / Purity change on 26 d: reversed phase chromatography 214 nm; for Purity change on 7 d / Concentration change on 7 d: Day 7; for Purity change on 7 d: purity on 7 d − purity on 0 d; for Purity change on 26 d: purity on 26 d − purity on 0 d
Protocol: A stability test chamber (BINDER GmbH), a 0.01 mg-readability balance (METTLER TOLEDO), a pH meter (METTLER TOLEDO), a biosafety cabinet (ESCO), T2G-II small-sized motor-driven capping machine (Changsha zhongya pharmaceutical equipment co. LTD), a high-speed refrigerated centrifuge (Eppendorf), a sterilizer cabinet (Shinva Medical), Agilent 1260 high-performance liquid chromatographer, and Sepax Bio-C18 4.6*250 mm 3 μm 200 Å reversed phase column were used.
Reagents and consumables included: ultrapure water (18.2 MΩ, self-made), acetonitrile (HPLC grade), trifluoroacetic acid (HPLC grade), sodium dihydrogen phosphate (pharmaceutical grade, Hunan Jiudian Hongyang Pharmaceutical Co., Ltd), hydrochloric acid (pharmaceutical grade, Hunan Er-Kang Pharmaceutical Co., Ltd), sodium hydroxide (Analytical Reagent grade, Hushi®, Sinopharm Chemical Reagent Co., Ltd), vials, rubber stoppers, disposable syringes, and sterile filters.
The lyophilized powder (1 mg/mL) of the polypeptide derivative prepared in accordance with the method of Example 1 was mixed with sodium dihydrogen phosphate (1.42 mg/mL) and dissolved in ultrapure water in the indicated mass-volume ratios. After adjusting pH to about 7.4 with hydrochloric acid/sodium hydroxide, the solution was filtered into a sterilized vial in a clean bench using a 0.22 μm sterile filter. The vial was then capped and placed into the stability test chamber at 40° C. Detections were made on Days 7 (7d) and 26 (26d), and during the assay, changes in the characteristics and properties of the polypeptide were observed and recorded. The sample was then centrifuged for 3 min at 10,000 rpm at 4° C., and the supernatant was transferred to a liquid phase sample vial for detecting the concentration and purity of the polypeptides using liquid phase chromatography described as below, wherein the concentration of the polypeptide=peak area/injection volume/extinction coefficient/60×flow rate, and the purity of the polypeptide=target peak area/total peak area×100%.
Conditions of the reversed phase chromatography Flow rate: 1.0 ml/min; Autosampler temperature: 15° C.; Column temperature: 25° C.; Detection wavelengths: 280 nm and 214 nm; Mobile phase A: 100% H2O+0.05% TFA; Mobile phase B: 100% ACN; and Gradient of elution listed in Table 6: […]

[2] = molecular target: T2, calcitonin receptor (hCTR) (Homo sapiens, UniProt P30988); test: Calcitonin receptor agonism, CRE-luciferase assay in stably transfected CHO-K1/CALCR/Ga15 cells; format: cell-based; conditions: for EC50: incubation of 24 hours, Table 4, read-out: EC50, activity against the calcitonin receptor in cells; for Fold change in activity against hCTR: relative to D1 as benchmark
T2 construct: host or cells: CHO-K1/CALCR/Ga15 cells, further stably transfected with a CRE-luciferase plasmid
T2 sequence (P30988 25-474): T1 sequence (P30988 25-474)
Protocol: Using the standard protocol, CHO-K1/CALCR/Ga15 cells (purchased from GenScript, with the calcitonin receptor constructed already) were transfected with a plasmid containing a luciferase expression cassette driven by multiple copies of cAMP response elements (CREs). The cells were cultured in an F12 medium containing 200 ug/mL Zeocin, 2 ug/mL puromycin, and 100 ug/mL hygromycin to afford a stably transfected calcitonin receptor/CRE-luc cell line.
To each well of a white 96-well plate was added 50 μL of the tested sample solution at a respective concentration.
The stably transfected calcitonin receptor/CRE-luc CHO cells were resuspended in the growth medium at a certain density, and 50 μL of the cell suspension was added at a density of about 20,000 cells per well to the white 96-well plate containing the tested sample solution. After incubation of 24 hours at 37° C. and 5% CO2, 100 μL of a Luciferase substrate was added to each well, incubated for 3 minutes, and finally was tested for luminescence on SpectraMax L (Molecular Devices) with the software SoftMax Pro 7.0.3 GxP. A standard curve was plotted using the fluorescent intensities for calculation of EC50.

| SMILES | Fold change in activity against hAMY3R (amylin receptor (hAMY3R)) | Concentration change on 26 d [1] [%] | Purity change on 7 d [1] | Purity change on 26 d [1] | EC50 [2] [nM] | Fold change in activity against hCTR [2] | Concentration change on 7 d [1] |
| --- | --- | --- | --- | --- | --- | --- | --- |
| CC(C)C[C@H](NC(=O)[C@H](CCCNC(=N)N)NC(=O)CNC(=O)[C@H](CC(C)C)NC(=O)[C@@H](NC(=O)[C@H](C)NC(=O)[C@@H](NC(=O)[C@H](CO)NC(=O)[C@H](CC(C)C)NC(=O)[C@H](CCC(N)=O)NC(=O)[C@H](CO)NC(=O)[C@H](C)NC(=O)CC[C@H](NC(=O)CCCCCCCCCCCCCCCCCCC(=O)O)C(=O)O)[C@@H](C)O)C(C)C)C(=O)N[C@@H](CO)C(=O)N[C@@H](CC(=O)O)C(=O)N[C@@H](CCC(=O)O)C(=O)N[C@@H](CC(C)C)C(=O)N[C@@H](Cc1c[nH]cn1)C(=O)N[C@@H](CCCNC(=N)N)C(=O)N[C@@H](CC(C)C)C(=O)N[C@@H](CCC(N)=O)C(=O)N[C@@H](CC(=O)O)C(=O)N[C@@H](Cc1ccc(O)cc1)C(=O)N1CCC[C@H]1C(=O)N[C@@H](CCCNC(=N)N)C(=O)N[C@H](C(=O)N[C@@H](CC(=O)O)C(=O)N[C@H](C(=O)NCC(=O)N[C@@H](CO)C(=O)NCC(=O)N[C@@H](CO)C(=O)N1CCC[C@H]1C(N)=O)C(C)C)[C@@H](C)O [M6] ({C20 diacid-γGlu}-ASQLSTAVLGRLSDELHRLQDYPRTDVGSGSP-NH2) | 2.118 | −1.865 | 1.64% | No change | 0.028 | 3.071 | – |
| CC(C)C[C@H](NC(=O)[C@H](CCCNC(=N)N)NC(=O)CNC(=O)[C@H](CC(C)C)NC(=O)[C@@H](NC(=O)[C@H](C)NC(=O)[C@@H](NC(=O)[C@H](CO)NC(=O)[C@H](CC(C)C)NC(=O)[C@H](CCC(N)=O)NC(=O)[C@H](CO)NC(=O)[C@H](C)NC(=O)CC[C@H](NC(=O)CCCCCCCCCCCCCCCCC(=O)O)C(=O)O)[C@@H](C)O)C(C)C)C(=O)N[C@@H](CO)C(=O)N[C@@H](CC(=O)O)C(=O)N[C@@H](CCC(=O)O)C(=O)N[C@@H](CC(C)C)C(=O)N[C@@H](Cc1c[nH]cn1)C(=O)N[C@@H](CCCNC(=N)N)C(=O)N[C@@H](CC(C)C)C(=O)N[C@@H](CCC(N)=O)C(=O)N[C@@H](CC(=O)O)C(=O)N[C@@H](Cc1ccc(O)cc1)C(=O)N1CCC[C@H]1C(=O)N[C@@H](CCCNC(=N)N)C(=O)N[C@H](C(=O)N[C@@H](CC(=O)O)C(=O)N[C@H](C(=O)NCC(=O)N[C@@H](CO)C(=O)NCC(=O)N[C@@H](CO)C(=O)N1CCC[C@H]1C(N)=O)C(C)C)[C@@H](C)O [M8] ({C18 diacid-γGlu}-ASQLSTAVLGRLSDELHRLQDYPRTDVGSGSP-NH2) | – | −6.190 | No change | −3.3% | 0.165 | – | No change (concentration change of less than 1% (denoted as “no change”)) |
| CC(C)C[C@H](NC(=O)[C@H](CCCNC(=N)N)NC(=O)CNC(=O)[C@H](CC(C)C)NC(=O)[C@@H](NC(=O)[C@H](C)NC(=O)[C@@H](NC(=O)[C@H](CO)NC(=O)[C@H](CC(C)C)NC(=O)[C@H](CCC(N)=O)NC(=O)[C@H](CO)NC(=O)[C@H](C)NC(=O)CC[C@H](NC(=O)CCCCCCCCCCCCCCC(=O)O)C(=O)O)[C@@H](C)O)C(C)C)C(=O)N[C@@H](CO)C(=O)N[C@@H](CC(=O)O)C(=O)N[C@@H](CCC(=O)O)C(=O)N[C@@H](CC(C)C)C(=O)N[C@@H](Cc1c[nH]cn1)C(=O)N[C@@H](CCCNC(=N)N)C(=O)N[C@@H](CC(C)C)C(=O)N[C@@H](CCC(N)=O)C(=O)N[C@@H](CC(=O)O)C(=O)N[C@@H](Cc1ccc(O)cc1)C(=O)N1CCC[C@H]1C(=O)N[C@@H](CCCNC(=N)N)C(=O)N[C@H](C(=O)N[C@@H](CC(=O)O)C(=O)N[C@H](C(=O)NCC(=O)N[C@@H](CO)C(=O)NCC(=O)N[C@@H](CO)C(=O)N1CCC[C@H]1C(N)=O)C(C)C)[C@@H](C)O [M9] ({C16 diacid-γGlu}-ASQLSTAVLGRLSDELHRLQDYPRTDVGSGSP-NH2) | – | −7.796 | −1.67% | −4.82% | 0.12 | – | −2.280% |
| CC(C)C[C@H](NC(=O)[C@H](CCCNC(=N)N)NC(=O)CNC(=O)[C@H](CC(C)C)NC(=O)[C@@H](NC(=O)[C@H](C)NC(=O)[C@@H](NC(=O)[C@H](CO)NC(=O)[C@H](CC(C)C)NC(=O)[C@H](CCC(N)=O)NC(=O)[C@H](CO)NC(=O)[C@H](C)NC(=O)[C@H](CC(=O)O)NC(=O)CCCCCCCCCCCCCCCCC(=O)O)[C@@H](C)O)C(C)C)C(=O)N[C@@H](CO)C(=O)N[C@@H](CC(=O)O)C(=O)N[C@@H](CCC(=O)O)C(=O)N[C@@H](CC(C)C)C(=O)N[C@@H](Cc1c[nH]cn1)C(=O)N[C@@H](CCCNC(=N)N)C(=O)N[C@@H](CC(C)C)C(=O)N[C@@H](CCC(N)=O)C(=O)N[C@@H](CC(=O)O)C(=O)N[C@@H](Cc1ccc(O)cc1)C(=O)N1CCC[C@H]1C(=O)N[C@@H](CCCNC(=N)N)C(=O)N[C@H](C(=O)N[C@@H](CC(=O)O)C(=O)N[C@H](C(=O)NCC(=O)N[C@@H](CO)C(=O)NCC(=O)N[C@@H](CO)C(=O)N1CCC[C@H]1C(N)=O)C(C)C)[C@@H](C)O [M13] ({C18 diacid}-DASQLSTAVLGRLSDELHRLQDYPRTDVGSGSP-NH2) | – | −5.520 | −1.15% | −3.76% | 0.085 | – | −1.895% |
| CC(C)C[C@H](NC(=O)[C@H](CCCNC(=N)N)NC(=O)CNC(=O)[C@H](CC(C)C)NC(=O)[C@@H](NC(=O)[C@H](C)NC(=O)[C@@H](NC(=O)[C@H](CO)NC(=O)[C@H](CC(C)C)NC(=O)[C@H](CCC(N)=O)NC(=O)[C@H](CO)NC(=O)[C@H](C)NC(=O)COCCOCCNC(=O)COCCOCCNC(=O)[C@H]1CC[C@H](CNC(=O)CCCCCCCCCCCCCCCCC(=O)O)CC1)[C@@H](C)O)C(C)C)C(=O)N[C@@H](CO)C(=O)N[C@@H](CC(=O)O)C(=O)N[C@@H](CCC(=O)O)C(=O)N[C@@H](CC(C)C)C(=O)N[C@@H](Cc1c[nH]cn1)C(=O)N[C@@H](CCCNC(=N)N)C(=O)N[C@@H](CC(C)C)C(=O)N[C@@H](CCC(N)=O)C(=O)N[C@@H](CC(=O)O)C(=O)N[C@@H](Cc1ccc(O)cc1)C(=O)N1CCC[C@H]1C(=O)N[C@@H](CCCNC(=N)N)C(=O)N[C@H](C(=O)N[C@@H](CC(=O)O)C(=O)N[C@H](C(=O)NCC(=O)N[C@@H](CO)C(=O)NCC(=O)N[C@@H](CO)C(=O)N1CCC[C@H]1C(N)=O)C(C)C)[C@@H](C)O [M28] ({C18 diacid-Trx-AEEA-AEEA}-ASQLSTAVLGRLSDELHRLQDYPRTDVGSGSP-NH2) | 18.000 | – | – | – | – | 0.966 | – |
